# Literature values in patent US10285597B2 (dated 2019).
# Conditions: TOL relative to TOSS (Ain=1 by definition); according to Bouillon et al., Anesthesiology 2004; 101: A503
compound,measurement,value
CC(C)c1cccc(C(C)C)c1O [propofol],C50 ratio of propofol for the tolerance of laryngoscopy as well as tolerance of shaking and loud shouting (stimulus intensity Ain for TOL),2.83
